Laboratory results published in patent US20220306695A1, “COMPSTATIN ANALOGUES AND THEIR MEDICAL USES” (priority 2019, published 2022).
Starred links: 1 amine or outer side, 2 acyl side, 3 side chain; linkers in the order of their positions; H or OH if unused. Positions of bridges follow the written chain, without caps; N, C: chain ends. Non-standard residues stand in square brackets, D forms with d. Residues, ends and D or L forms follow the SMILES beside them. Groups on a side chain read outwards from the residue. *: point of attachment. Trp(1-Me) = Cn1cc(C[C@H](N)C(=O)O)c2ccccc21; Abu(4-yl) = O=C([C@H](CC[*:3])N[*:1])[*:2]; C18 diacid = O=C(O)CCCCCCCCCCCCCCCCC(=O)*; C16 diacid = O=C(O)CCCCCCCCCCCCCCC(=O)*; γGlu = O=C(O)[C@H](CCC(=O)[*:2])N[*:1]; AEEA = NCCOCCOCC(=O)O; Sar = CNCC(=O)O

Tests used:
[1] = tested on: classical complement pathway; assay: In vitro haemolysis assay (inhibition of classical complement pathway); type: cell-based, human; details: Table 3; human serum, sensitized sheep red blood cells; read-out: IC50[nM], in vitro analysis of inhibition of hemolysis
Outline: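 Serially diluted compound (9 points) was preincubated 15 min at room temperature with diluted human serum, titrated per batch to give 70-90% maximal haemolysis, in Tris/casein buffer pH 7.4 with Mg2+/Ca2+. Antibody-sensitized sheep erythrocytes were then added for 30 min at 37° C, and the reaction was stopped with EDTA. Haemolysis was read at A405, with IC50 from 4PL fit.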

in vivo = assay: in vivo; parameters: species or system Cynomolgus monkeys (Macaca fascicularis); details: male, cynomolgus monkey, sc, 1840 nmol/kg, t½
Description: Healthy male Cynomolgus monkeys (Macaca fascicularis) received single subcutaneous administrations of each test substance. Compounds were formulated in 20 mM phosphate adjusted with NaOH to pH 7.5 and mannitol for isotonicity and dosed at 1840 nmol/kg. Blood was collected from a femoral vein from each animal at the following times: Pre-dose, 1, 2, 4, 8, 24, 48, 72, 96 and 120 h (10 sampling times). Blood was collected into serum separation tubes and allowed to clot at room temperature. The tubes were centrifuged and resulting serum was aliquoted and snap-frozen over dry-ice and stored at nominally −80° C. until analysis. All NHP studies were performed in accordance with animal welfare laws and regulations, including approval of the study by a local ethical review process.
In order to assess pharmacokinetic half-life (t %/), serum samples isolated from non-human primates at specific time points after dosing were analysed for total drug compound after sample preparation by solid phase extraction (SPE) and liquid chromatography mass spectrometry (LC-MS/MS) using analogue internal standard. Single measurement of serum concentrations were used for calculation of the pharmacokinetic parameters using the non-compartmental approach in Phoenix WinNonlin 6.3. Plasma terminal elimination half-life (ty) was determined as In(2)/λz where λz is the magnitude of the slope of the log linear regression of the log concentration versus time profile during the terminal phase.

[2] = Solubility test at 10 mg/mL (visual inspection and light scattering); type: physicochemical; details: for Solubility, Condition 1 Acetate pH 4: 10 mg/mL compound in 100 mM acetate pH 4; for Solubility, Condition 2 Acetate pH 5: 10 mg/mL compound in 100 mM acetate pH 5; for Solubility, Condition 3 Phosphate pH 6: 10 mg/mL compound in 100 mM phosphate pH 6; for Solubility, Condition 4 Phosphate pH 7: 10 mg/mL compound in 100 mM phosphate pH 7; for Solubility, Condition 5 Phosphate pH 7.5: 10 mg/mL compound in 100 mM phosphate pH 7.5

SMILES	half-life (in vivo)	IC50 [1]	Solubility, Condition 1 Acetate pH 4 [2]	Solubility, Condition 2 Acetate pH 5 [2]	Solubility, Condition 3 Phosphate pH 6 [2]	Solubility, Condition 4 Phosphate pH 7 [2]	Solubility, Condition 5 Phosphate pH 7.5 [2]
CC[C@H](C)[C@@H]1NC(=O)[C@@H](NC(=O)[C@H](Cc2ccccc2)NC(=O)[C@H](CCC(=O)O)NC(=O)[C@H](CO)NC(C)=O)CSCC[C@@H](C(=O)N(C)CC(=O)N[C@@H](CCC(=O)O)C(=O)NCC(=O)N[C@@H](CCC(=O)O)C(=O)NCCOCCOCC(=O)NCCOCCOCC(=O)N[C@@H](CCCCNC(=O)CC[C@H](NC(=O)CNC(=O)CC[C@H](NC(=O)CCCCCCCCCCCCCCCCC(=O)O)C(=O)O)C(=O)O)C(N)=O)NC(=O)[C@H](CCCNC(=N)N)NC(=O)[C@H](Cc2c[nH]cn2)NC(=O)[C@H](CCC(=O)O)NC(=O)CNC(=O)[C@H](Cc2c[nH]c3ccccc23)NC(=O)[C@H](CC(=O)O)NC(=O)[C@H](CCC(N)=O)NC(=O)[C@H](Cc2cn(C)c3ccccc23)NC1=O [Compound 146, Ac-SEFA(1)I[1-Me-Trp]QDWGEHRhC(1)[Sar]EGE[Peg3][Peg3]-K([17-carboxy-heptadecanoyl][γGlu]G[γGlu])-NH2] (Ac-SEFCI[Trp(1-Me)]QDWGEHR[Abu(4-yl)][Sar]EGE[AEEA][AEEA]K([γGlu-Gly-γGlu-C18 diacid])-NH2; thioether 4-14)	117 h	< 100 nM					
CC[C@H](C)[C@@H]1NC(=O)[C@@H](NC(=O)[C@H](Cc2ccccc2)NC(=O)[C@H](CCC(=O)O)NC(=O)[C@H](CO)NC(C)=O)CSSC[C@@H](C(=O)N(C)CC(=O)N[C@@H](CCC(=O)O)C(=O)NCC(=O)N[C@@H](CCC(=O)O)C(=O)NCCOCCOCC(=O)NCCOCCOCC(=O)N[C@@H](CCCCNC(=O)CC[C@H](NC(=O)CNC(=O)CC[C@H](NC(=O)CCCCCCCCCCCCCCCCC(=O)O)C(=O)O)C(=O)O)C(N)=O)NC(=O)[C@H](CCCNC(=N)N)NC(=O)[C@H](Cc2c[nH]cn2)NC(=O)[C@H](CCC(=O)O)NC(=O)CNC(=O)[C@H](Cc2c[nH]c3ccccc23)NC(=O)[C@H](CCC(=O)O)NC(=O)[C@H](CCC(N)=O)NC(=O)[C@H](Cc2cn(C)c3ccccc23)NC1=O [Compound 124] (Ac-SEFCI[Trp(1-Me)]QEWGEHRC[Sar]EGE[AEEA][AEEA]K([γGlu-Gly-γGlu-C18 diacid])-NH2; disulfide 4-14)	112 h	< 100 nM					
CC[C@H](C)[C@@H]1NC(=O)[C@@H](NC(=O)[C@H](Cc2ccc(O)cc2)NC(=O)[C@H](C)NC(=O)[C@H](CO)NC(=O)CNC(=O)[C@H](CCC(=O)O)NC(C)=O)CSSC[C@@H](C(=O)N(C)CC(=O)N[C@@H](CCC(=O)O)C(=O)NCC(=O)N[C@@H](CCCCNC(=O)COCCOCCNC(=O)COCCOCCNC(=O)CC[C@H](NC(=O)CCCCCCCCCCCCCCC(=O)O)C(=O)O)C(N)=O)NC(=O)[C@H](CCCNC(=N)N)NC(=O)[C@H](Cc2c[nH]cn2)NC(=O)[C@H](CCC(=O)O)NC(=O)CNC(=O)[C@H](Cc2c[nH]c3ccccc23)NC(=O)[C@H](CC(=O)O)NC(=O)[C@H](CCC(N)=O)NC(=O)[C@H](Cc2cn(C)c3ccccc23)NC1=O [Compound 104] (Ac-EGSAYCI[Trp(1-Me)]QDWGEHRC[Sar]EGK([AEEA-AEEA-γGlu-C16 diacid])-NH2; disulfide 6-16)	96.3 h	< 100 nM	− (denotes lack of solubility at the given condition, as UV absorbance at 340 nm exceeds 0.1 AU and/or it is visibly turbid or contains particles.)	+ (denotes solubility at the given condition, as determined by UV absorbance being less than 0.1 AU at 340 nm and the sample being clear when manually inspected.)	+ (denotes solubility at the given condition, as determined by UV absorbance being less than 0.1 AU at 340 nm and the sample being clear when manually inspected.)	+ (denotes solubility at the given condition, as determined by UV absorbance being less than 0.1 AU at 340 nm and the sample being clear when manually inspected.)	+ (denotes solubility at the given condition, as determined by UV absorbance being less than 0.1 AU at 340 nm and the sample being clear when manually inspected.)
CC[C@H](C)[C@@H]1NC(=O)[C@@H](NC(=O)[C@H](Cc2ccc(O)cc2)NC(=O)[C@H](CCC(=O)O)NC(=O)[C@H](CO)NC(=O)CNC(=O)[C@H](CCC(=O)O)NC(=O)CCCCCCCCCCCCCCC(=O)O)CSSC[C@@H](C(=O)N(C)CC(=O)N[C@@H](CCC(=O)O)C(N)=O)NC(=O)[C@H](CCCNC(=N)N)NC(=O)[C@H](Cc2c[nH]cn2)NC(=O)[C@H](CCC(=O)O)NC(=O)CNC(=O)[C@H](Cc2c[nH]c3ccccc23)NC(=O)[C@H](CC(=O)O)NC(=O)[C@H](CCC(N)=O)NC(=O)[C@H](Cc2cn(C)c3ccccc23)NC1=O [Compound 107] ({C16 diacid}-EGSEYCI[Trp(1-Me)]QDWGEHRC[Sar]E-NH2; disulfide 6-16)	20.1 h	< 100 nM	− (denotes lack of solubility at the given condition, as UV absorbance at 340 nm exceeds 0.1 AU and/or it is visibly turbid or contains particles.)	− (denotes lack of solubility at the given condition, as UV absorbance at 340 nm exceeds 0.1 AU and/or it is visibly turbid or contains particles.)	+ (denotes solubility at the given condition, as determined by UV absorbance being less than 0.1 AU at 340 nm and the sample being clear when manually inspected.)	+ (denotes solubility at the given condition, as determined by UV absorbance being less than 0.1 AU at 340 nm and the sample being clear when manually inspected.)	+ (denotes solubility at the given condition, as determined by UV absorbance being less than 0.1 AU at 340 nm and the sample being clear when manually inspected.)

The next lines start with results.

half-life (in vivo)	SMILES	IC50 [1]	Solubility, Condition 1 Acetate pH 4 [2]	Solubility, Condition 2 Acetate pH 5 [2]	Solubility, Condition 3 Phosphate pH 6 [2]	Solubility, Condition 4 Phosphate pH 7 [2]	Solubility, Condition 5 Phosphate pH 7.5 [2]
145 h	CC[C@H](C)[C@@H]1NC(=O)[C@@H](NC(=O)[C@H](Cc2ccccc2)NC(=O)[C@H](CCC(=O)O)NC(=O)[C@H](CO)NC(C)=O)CSSC[C@@H](C(=O)N(C)CC(=O)N[C@@H](CCC(=O)O)C(=O)NCC(=O)N[C@@H](CCC(=O)O)C(=O)N[C@@H](CO)C(=O)N[C@@H](CCC(=O)O)C(=O)N[C@@H](CO)C(=O)N[C@@H](CCCCNC(=O)CC[C@H](NC(=O)CCCCCCCCCCCCCCCCC(=O)O)C(=O)O)C(N)=O)NC(=O)[C@H](CCCNC(=N)N)NC(=O)[C@H](Cc2c[nH]cn2)NC(=O)[C@H](CCC(=O)O)NC(=O)CNC(=O)[C@H](Cc2c[nH]c3ccccc23)NC(=O)[C@H](CC(=O)O)NC(=O)[C@H](CCC(N)=O)NC(=O)[C@H](Cc2cn(C)c3ccccc23)NC1=O [Compound 141] (Ac-SEFCI[Trp(1-Me)]QDWGEHRC[Sar]EGESESK([γGlu-C18 diacid])-NH2; disulfide 4-14)	< 100 nM					
82 h	CC[C@H](C)[C@@H]1NC(=O)[C@@H](NC(=O)[C@H](Cc2ccccc2)NC(=O)[C@H](CCC(=O)O)NC(=O)[C@H](CO)NC(C)=O)CSSC[C@@H](C(=O)N(C)CC(=O)N[C@@H](CCC(=O)O)C(=O)NCC(=O)N[C@@H](CCC(=O)O)C(=O)N[C@@H](CO)C(=O)N[C@@H](CCC(=O)O)C(=O)N[C@@H](CO)C(=O)N[C@@H](CCCCNC(=O)CC[C@H](NC(=O)CNC(=O)CC[C@H](NC(=O)CCCCCCCCCCCCCCCCC(=O)O)C(=O)O)C(=O)O)C(N)=O)NC(=O)[C@H](CCCNC(=N)N)NC(=O)[C@H](Cc2c[nH]cn2)NC(=O)[C@H](CCC(=O)O)NC(=O)CNC(=O)[C@H](Cc2c[nH]c3ccccc23)NC(=O)[C@H](CC(=O)O)NC(=O)[C@H](CCC(N)=O)NC(=O)[C@H](Cc2cn(C)c3ccccc23)NC1=O [Compound 139] (Ac-SEFCI[Trp(1-Me)]QDWGEHRC[Sar]EGESESK([γGlu-Gly-γGlu-C18 diacid])-NH2; disulfide 4-14)	< 100 nM					
100 h	CC[C@H](C)[C@@H]1NC(=O)[C@@H](NC(=O)[C@H](Cc2ccccc2)NC(=O)[C@H](CCC(=O)O)NC(=O)[C@H](CO)NC(C)=O)CSSC[C@@H](C(=O)N(C)CC(=O)N[C@@H](CCC(=O)O)C(=O)NCC(=O)N[C@@H](CCC(=O)O)C(=O)NCCOCCOCC(=O)N[C@@H](CCC(=O)O)C(=O)N[C@@H](CO)C(=O)N[C@@H](CCCCNC(=O)CC[C@H](NC(=O)CNC(=O)CC[C@H](NC(=O)CCCCCCCCCCCCCCCCC(=O)O)C(=O)O)C(=O)O)C(N)=O)NC(=O)[C@H](CCCNC(=N)N)NC(=O)[C@H](Cc2c[nH]cn2)NC(=O)[C@H](CCC(=O)O)NC(=O)CNC(=O)[C@H](Cc2c[nH]c3ccccc23)NC(=O)[C@H](CC(=O)O)NC(=O)[C@H](CCC(N)=O)NC(=O)[C@H](Cc2cn(C)c3ccccc23)NC1=O [Compound 140] (Ac-SEFCI[Trp(1-Me)]QDWGEHRC[Sar]EGE[AEEA]ESK([γGlu-Gly-γGlu-C18 diacid])-NH2; disulfide 4-14)	< 100 nM					
